This note sets out measurements from patent publication EP4775586A1, “DEUTERATED TETRACYCLIC DERIVATIVE AND USE THEREOF” (priority 2023, dated 2025).

Data set [1] can be described thus: Pharmacokinetics and lung tissue distribution in mice, LC-MS/MS. The settings on record: mouse, in vivo, po, 100 mg/kg. It counts as in vivo, Balb/C mice. Here is the method:
In this example, the pharmacokinetic parameters and lung tissue distribution of the deuterated compounds YF027, YF032, YF036, and YF044 and their respective non-deuterated control compounds (A, B, C, and D) were determined.
Balb/C mice, male (1 group at each time point, 5 mice per group, 55 mice per compound in total), 7-8 weeks old, weighing about 20 g, animal source: Beijing Vital River Laboratory Animal Technology Co., Ltd.
The test compound was completely dissolved in an 8% Tween-80 aqueous solution. A 10 mg/mL drug liquid was prepared for intraperitoneal injection and intragastric administration.
Single intragastric administration was performed at a dose of 100 mg/kg. The pharmacokinetic differences between the deuterated compounds YF027, YF032, YF036, and YF044 and their respective non-deuterated controls A, B, C, and D were compared.
The mice were fasted overnight before administration. In the experiment, orbital venous blood and lung tissue were collected from the mice at time points of no administration group (0 min) and 10 min, 20 min, 30 min, 1 h, 2 h, 3 h, 4 h, 6 h, 8 h, and 24 h after intragastric administration, and about 300 µL of blood was collected from the eyeballs each time.
The collected blood sample was placed in an anticoagulation tube, and quickly inverted and mixed well. The tube was temporarily placed on ice after being labeled. The blood samples temporarily stored on ice were subjected to low-temperature centrifugation within 1 h at 4 °C at 3000 rpm for 10 min. The supernatant obtained after centrifugation was plasma. The plasma was transferred to a new centrifuge tube and stored in a refrigerator at -80 °C for subsequent detection.
The lung tissues of the mice were collected, washed with pre-cooled normal saline to remove the residual blood and tissue fluid, dried with absorbent paper, weighed with a balance, and placed into a centrifuge tube. The tubes were marked and stored in a refrigerator at -80 °C.
The concentrations of the compounds of the present disclosure and control compounds in plasma and lung tissue were determined using LC-MS/MS. Table 2. Pharmacokinetic parameters of compound YF027 of the present disclosure and control compound A

The target of data set [2] is T1, CYP1A2 (Mus musculus, UniProt P00186).
T1 construct: from tissue; host or cells: mouse liver microsomes (component of a kit)
T1 sequence (P00186 1-513): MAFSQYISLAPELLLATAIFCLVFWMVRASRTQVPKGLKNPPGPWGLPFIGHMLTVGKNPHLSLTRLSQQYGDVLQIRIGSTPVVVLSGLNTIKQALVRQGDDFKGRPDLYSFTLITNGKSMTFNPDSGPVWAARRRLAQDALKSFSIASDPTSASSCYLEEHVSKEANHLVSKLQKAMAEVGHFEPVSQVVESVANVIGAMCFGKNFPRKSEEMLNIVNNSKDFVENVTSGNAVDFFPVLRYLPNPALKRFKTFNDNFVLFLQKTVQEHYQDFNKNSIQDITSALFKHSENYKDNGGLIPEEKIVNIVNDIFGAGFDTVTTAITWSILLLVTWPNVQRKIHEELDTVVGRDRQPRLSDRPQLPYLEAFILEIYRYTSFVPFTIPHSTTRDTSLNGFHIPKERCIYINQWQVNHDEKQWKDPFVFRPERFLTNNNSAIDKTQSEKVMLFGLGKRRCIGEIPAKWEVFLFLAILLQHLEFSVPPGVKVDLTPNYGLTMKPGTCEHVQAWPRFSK
It is filed as in vitro ADME. Here is the method: (§1) This example was to detect the CYP450 metabolic enzyme phenotype of the deuterated compound YF027 and its non-deuterated control compound A (using a CYP450 enzyme metabolic phenotype research kit (recombinant enzymatic method/7 enzymes)-mouse liver microsome test).
(§2) • a. The test compound was prepared into a 40 mM stock solution for later use. 2.5 µL of the stock solution was taken and diluted with DMSO to a test compound concentration of 200 µM, and the compound at this concentration was used in subsequent tests. • b. The working solution concentration of the mixed positive substrates, phenacetin and testosterone, was 200 µM.
(§3) 1) The components of the kit were thawed in an ice bath. The mixture was well mixed by vortexing and then placed on ice for later use. 2) In addition to the microsomes, the other components of the incubation systems were mixed according to the ratios and well mixed by pipetting, and the ratios of the incubation systems are shown below; Table 6. Incubation system of positive control group
(§4) The inhibitors were quinidine, naphthoflavone, pilocarpine, sodium diethyldithiocarbamate, ticlopidine, ketoconazole, and sulfaphenazole, which corresponded to the inhibition of CYP450 enzymes CYP2D6, CYP1A2, CYP2A6, CYP2E1, CYP2C19, CYP3A4, and CYP2C9, respectively. Table 9. Incubation system of negative control group
(§5) 3) Except for the negative control group (Table 9), 3.125 µL of liver microsomes was added to each of the above incubation systems to prepare 125 µL of reaction solution. The reaction solutions were well mixed by vortexing, and then placed in a water bath at 37 °C to initiate the reaction. A timer was set. 4) At time points of 0 min and 90 min, 50 µL of reaction solution was taken, and a pre-cooled acetonitrile solution was added to the reaction solution. The mixture was quickly well mixed by vortexing to stop the reaction. 5) Mass spectrometry detection pretreatment of reaction solution
(§6) The reaction solution was cryopreserved in a refrigerator at -80 °C overnight and then centrifuged for mass spectrometry detection.
(§7) The detection values after 90 min of incubation were processed as ratios relative to the 0-min detection values to determine the metabolic rate of the compounds in different experimental groups after 90 min. The metabolic inhibition rate was then calculated using the formula: Inhibition rate (%) = (1 - metabolic rate of sample with inhibitor/metabolic rate of sample without inhibitor) × 100%, as shown in Table 10 below. […] The metabolic inhibition rate reflects the effect on the metabolic elimination of the drug after adding different selective inhibitors. […]

Data set [3] has as its target T2, CYP2E1 (Mus musculus, UniProt Q05421).
T2 construct: from tissue; host or cells: mouse liver microsomes (component of a kit)
It counts as in vitro ADME. The procedure: as §1, §2, §3, §4, §5, §6, §7

For data set [4], the system named is Mycobacterium tuberculosis H37Rv. It counts as in vivo, BALB/c mice.

T2 sequence (Q05421 whole entry): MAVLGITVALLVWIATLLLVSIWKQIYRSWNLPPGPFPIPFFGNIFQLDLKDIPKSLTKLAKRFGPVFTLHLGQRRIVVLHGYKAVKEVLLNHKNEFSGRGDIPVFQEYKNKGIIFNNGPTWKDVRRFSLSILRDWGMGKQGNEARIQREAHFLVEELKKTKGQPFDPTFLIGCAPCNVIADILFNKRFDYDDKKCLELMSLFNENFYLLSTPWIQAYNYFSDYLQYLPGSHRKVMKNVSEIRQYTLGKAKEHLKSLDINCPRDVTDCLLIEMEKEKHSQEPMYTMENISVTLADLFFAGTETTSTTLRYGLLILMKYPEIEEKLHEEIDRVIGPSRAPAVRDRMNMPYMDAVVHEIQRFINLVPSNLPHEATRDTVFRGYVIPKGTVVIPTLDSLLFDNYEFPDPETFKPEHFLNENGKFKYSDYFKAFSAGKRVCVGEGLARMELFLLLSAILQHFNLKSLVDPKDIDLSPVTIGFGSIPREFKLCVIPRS

Consider `Cl.[2H]C1([2H])CCCC([2H])([2H])N1C([2H])([2H])c1c(O)cc(C(C)(C)C)c2oc3c4ccc(O)cc4oc(=O)c3c12` [YF027, 10-(tert-Butyl)-3,8-dihydroxy-7-((piperidin-1-yl-2,2,6,6-d4)methyl-d2)-6H-benzofuran[3,2-c]chromen-6-one hydrochloride], for which, in data set [1], the “AUC0-∞” value was 380.76 ng·h/mL, the CL is recorded as 262.63 L/h/kg, the highest concentration (Cmax) was found to be 100.26 ng/mL and the “Lung tissue distribution Cmax” value turned out to be 1406.73 ng/g. Besides, in data set [1], the Tmax came to 0.5 h and the t1/2 came out at 1.83 h. The same molecule gave an AUC0-t in data set [1] (24 h) of 367.05 ng·h/mL. Moreover, the Inhibition rate in data set [2] was found to be 0.4%. Moreover, in data set [3], the Inhibition rate was -15.1%. Further, the “pulmonary Mycobacterium tuberculosis clearance rate” value in data set [4] (100 mg/kg intragastrically, 4 weeks, mice) is 99.0%. For the same molecule, in data set [4] (mouse, in vivo), the “reduction of pulmonary bacterial load” value was determined as 1.98 log.

A word on the Cmax: it is the highest concentration seen after dosing. What is called Tmax is the time from dosing to the highest level.
